# In patent publication US20040006070A1, “Intraspinal continuous infusion of midazolam hydrochloride for the treatment of pain” (priority 2002, published 2004):
# Structures can show the parent of a compound that is named as a salt.
# Experiment: Bloodwork: complete blood count, electrolytes, extended blood chemistry
# Type: in vivo, sheep
# Method: Indirect blood pressure, pulse recording, pain testing (mechanical stimulus device, cold and warm water baths see description in procedure) and weight were taken on days 1, 3, 7, 15, 22, 29, 36, and 43. Venous blood samples (15 ml drawn from the jugular vein with Vacutainer brand blood collection tubes) for complete blood count, electrolytes, and extended blood chemistry were drawn on days 1, 15, and 43 (mild procedure only light hand restraint necessary).
# [1] = sheep Elmer Fudd #437, 5 mg/day, Day 43
# [2] = sheep Leghorn II #815, 15 mg/day, Baseline
# [3] = sheep Leghorn II #815, 15 mg/day, Day 1
# [4] = sheep Leghorn II #815, 15 mg/day, Day 15
# [5] = sheep Leghorn II #815, 15 mg/day, Day 43
# [6] = sheep Petunia #439, 15 mg/day, Baseline
# [7] = sheep Petunia #439, 15 mg/day, Day 1
# [8] = sheep Petunia #439, 15 mg/day, Day 15
# [9] = sheep Petunia #439, 15 mg/day, Day 43
# [10] = sheep Porky #402, 5 mg/day, Baseline
# [11] = sheep Porky #402, 5 mg/day, Day 1
# [12] = sheep Porky #402, 5 mg/day, Day 15
# [13] = sheep Porky #402, 5 mg/day, Day 43
structure (smiles),measurement,setting,value
"Cc1ncc2n1-c1ccc(Cl)cc1C(c1ccccc1F)=NC2 [Midazolam, midazolam hydrochloride]",CPK,[1],64 U/L
same,Cholesterol,[1],90 mg/dL
same,Creatinine,[1],1.3 mg/dL
same,Differential Count: Atyp lym,[1],0%
same,Differential Count: Bands,[1],0%
same,Differential Count: Eosin,[1],2%
same,Differential Count: Lymph,[1],38%
same,Differential Count: Mono,[1],1%
same,Differential Count: Seg,[1],59%
same,Gamma GT,[1],48 U/L
same,Glucose,[1],83 mg/dL
same,Hct,[1],34.6%
same,Hgb,[1],11.8 g/dL
same,K+,[1],4.3 mEq/l
same,MCH,[1],10.8 pg
same,MCHC,[1],34.2 G/dl
same,MCV,[1],31.7 fL
same,Na+,[1],147 mEq/l
same,Phos,[1],6.2 mg/dL
same,Platlet Count,[1],540000 µL⁻¹
same,RBC,[1],1.09e+07 µL⁻¹
same,Total Bili,[1],0.1 mg/dL
same,Total Prot,[1],6.6 g/dL
same,WBC,[1],4650 µL⁻¹
same,Differential Count: Atyp lym,[2],0%
same,Differential Count: Baso,[2],0%
same,Differential Count: Eosin,[2],4%
same,Differential Count: Lymph,[2],79%
same,Differential Count: Mono,[2],3%
same,Differential Count: Seg,[2],14%
same,Hct,[2],36.9%
same,Hgb,[2],12.5 g/dL
same,MCH,[2],10.7 pg
same,MCHC,[2],33.9 G/dl
same,MCV,[2],31.5 fL
same,Platlet Count,[2],516000 µL⁻¹
same,RBC,[2],1.17e+07 µL⁻¹
same,WBC,[2],6730 µL⁻¹
same,ALT,[3],14 U/L
same,AST,[3],117 U/L
same,Albumin,[3],3.5 g/dL
same,Alk Phos,[3],117 U/L
same,BUN,[3],19 mg/dL
same,CPK,[3],94 U/L
same,Cholesterol,[3],68 mg/dL
same,Creatinine,[3],0.9 mg/dL
same,Differential Count: Atyp lym,[3],0%
same,Differential Count: Baso,[3],0%
same,Differential Count: Eosin,[3],2%
same,Differential Count: Lymph,[3],58%
same,Differential Count: Mono,[3],2%
same,Differential Count: Seg,[3],28%
same,Gamma GT,[3],80 U/L
same,Glucose,[3],80 mg/dL
same,Hct,[3],34.7%
same,Hgb,[3],11.8 g/dL
same,K+,[3],5.0 mEq/l
same,MCH,[3],10.6 pg
same,MCHC,[3],34.0 G/dl
same,MCV,[3],31.1 fL
same,Na+,[3],146 mEq/l
same,Phos,[3],8.3 mg/dL
same,Platlet Count,[3],828000 µL⁻¹
same,RBC,[3],1.11e+07 µL⁻¹
same,Total Bili,[3],0 mg/dL
same,Total Prot,[3],6.3 g/dL
same,WBC,[3],6070 µL⁻¹
same,Differential Count: Atyp lym,[4],0%
same,Differential Count: Baso,[4],0%
same,Differential Count: Eosin,[4],16%
same,Differential Count: Lymph,[4],59%
same,Differential Count: Mono,[4],1%
same,Differential Count: Seg,[4],24%
same,Hct,[4],38.0%
same,Hgb,[4],12.4 g/dL
same,MCH,[4],10.4 pg
same,MCHC,[4],32.7 G/dl
same,MCV,[4],31.8 fL
same,Platlet Count,[4],861000 µL⁻¹
same,RBC,[4],1.2e+07 µL⁻¹
same,WBC,[4],6640 µL⁻¹
same,Differential Count: Atyp lym,[5],0%
same,Differential Count: Baso,[5],1%
same,Differential Count: Eosin,[5],2%
same,Differential Count: Lymph,[5],77%
same,Differential Count: Mono,[5],2%
same,Differential Count: Seg,[5],18%
same,Hct,[5],36.4%
same,Hgb,[5],12.3 g/dL
same,MCH,[5],10.5 pg
same,MCHC,[5],33.7 G/dl
same,MCV,[5],31.2 fL
same,Platlet Count,[5],345000 µL⁻¹
same,RBC,[5],1.17e+07 µL⁻¹
same,WBC,[5],6110 µL⁻¹
same,Differential Count: Atyp lym,[6],0%
same,Differential Count: Bands,[6],0%
same,Differential Count: Eosin,[6],130%
same,Differential Count: Lymph,[6],53%
same,Differential Count: Mono,[6],7%
same,Differential Count: Seg,[6],27%
same,Hct,[6],41.1%
same,Hgb,[6],14.0 g/dL
same,MCH,[6],11.5 pg
same,MCHC,[6],34.2 G/dl
same,MCV,[6],33.6 fL
same,Platlet Count,[6],489000 µL⁻¹
same,RBC,[6],1.22e+07 µL⁻¹
same,WBC,[6],3120 µL⁻¹
same,ALT,[7],0 U/L
same,AST,[7],102 U/L
same,Albumin,[7],3.6 g/dL
same,Alk Phos,[7],43 U/L
same,BUN,[7],10 mg/dL
same,CPK,[7],84 U/L
same,Cholesterol,[7],60 mg/dL
same,Creatinine,[7],1.1 mg/dL
same,Differential Count: Atyp lym,[7],2%
same,Differential Count: Bands,[7],1%
same,Differential Count: Eosin,[7],1%
same,Differential Count: Lymph,[7],50%
same,Differential Count: Mono,[7],6%
same,Differential Count: Seg,[7],40%
same,Gamma GT,[7],84 U/L
same,Glucose,[7],71 mg/dL
same,Hct,[7],42.4%
same,Hgb,[7],14.4 g/dL
same,K+,[7],5.4 mEq/l
same,MCH,[7],11.3 pg
same,MCHC,[7],33.9 G/dl
same,MCV,[7],33.3 fL
same,Na+,[7],152 mEq/l
same,Phos,[7],7.9 mg/dL
same,RBC,[7],1.27e+07 µL⁻¹
same,Total Bili,[7],0 mg/dL
same,Total Prot,[7],6.6 g/dL
same,WBC,[7],2920 µL⁻¹
same,Platlet Count,"sheep Petunia #439, 15 mg/day, Day 1, platelet clumps observed",715• ×10^3/μl
same,ALT,[8],1 U/L
same,AST,[8],94 U/L
same,Albumin,[8],4.0 g/dL
same,Alk Phos,[8],29 U/L
same,BUN,[8],14 mg/dL
same,CPK,[8],105 U/L
same,Cholesterol,[8],61 mg/dL
same,Creatinine,[8],1.2 mg/dL
same,Differential Count: Atyp lym,[8],1%
same,Differential Count: Bands,[8],0%
same,Differential Count: Eosin,[8],2%
same,Differential Count: Lymph,[8],46%
same,Differential Count: Mono,[8],3%
same,Differential Count: Seg,[8],48%
same,Gamma GT,[8],74 U/L
same,Glucose,[8],93 mg/dL
same,Hct,[8],30.8%
same,Hgb,[8],10.1 g/dL
same,K+,[8],4.3 mEq/l
same,MCH,[8],11.2 pg
same,MCHC,[8],32.7 G/dl
same,MCV,[8],34.2 fL
same,Na+,[8],150 mEq/l
same,Phos,[8],4.9 mg/dL
same,RBC,[8],9.02e+06 µL⁻¹
same,Total Bili,[8],0.3 mg/dL
same,Total Prot,[8],7.2 g/dL
same,WBC,[8],3600 µL⁻¹
same,Platlet Count,"sheep Petunia #439, 15 mg/day, Day 15, platelet clumps observed",606• ×10^3/μl
same,ALT,[9],0 U/L
same,AST,[9],97 U/L
same,Albumin,[9],3.6 g/dL
same,Alk Phos,[9],49 U/L
same,BUN,[9],17 mg/dL
same,CPK,[9],91 U/L
same,Cholesterol,[9],65 mg/dL
same,Creatinine,[9],1.2 mg/dL
same,Differential Count: Atyp lym,[9],1%
same,Differential Count: Bands,[9],0%
same,Differential Count: Eosin,[9],7%
same,Differential Count: Lymph,[9],47%
same,Differential Count: Mono,[9],4%
same,Differential Count: Seg,[9],41%
same,Gamma GT,[9],77 U/L
same,Glucose,[9],68 mg/dL
same,Hct,[9],36.0%
same,Hgb,[9],11.8 g/dL
same,K+,[9],5.2 mEq/l
same,MCH,[9],11.2 pg
same,MCHC,[9],32.7 G/dl
same,MCV,[9],34.1 fL
same,Na+,[9],146 mEq/l
same,Phos,[9],6.2 mg/dL
same,Platlet Count,[9],356000 µL⁻¹
same,RBC,[9],1.05e+07 µL⁻¹
same,Total Bili,[9],0.1 mg/dL
same,Total Prot,[9],6.3 g/dL
same,WBC,[9],2300 µL⁻¹
same,Differential Count: Atyp lym,[10],0%
same,Differential Count: Bands,[10],0%
same,Differential Count: Eosin,[10],2%
same,Differential Count: Lymph,[10],48%
same,Differential Count: Mono,[10],2%
same,Differential Count: Seg,[10],48%
same,Hct,[10],40.7%
same,Hgb,[10],13.5 g/dL
same,MCH,[10],12.4 pg
same,MCHC,[10],33.2 g/dL
same,MCV,[10],37.2 fL
same,Platlet Count,[10],215000 µL⁻¹
same,RBC,[10],1.09e+07 µL⁻¹
same,WBC,[10],3530 µL⁻¹
same,ALT,[11],3 U/L
same,AST,[11],67 U/L
same,Albumin,[11],3.5 g/dL
same,Alk Phos,[11],37 U/L
same,BUN,[11],10 mg/dL
same,CPK,[11],73 U/L
same,Cholesterol,[11],71 mg/dL
same,Creatinine,[11],1.3 mg/dL
same,Differential Count: Atyp lym,[11],0%
same,Differential Count: Bands,[11],0%
same,Differential Count: Eosin,[11],1%
same,Differential Count: Lymph,[11],41%
same,Differential Count: Mono,[11],5%
same,Differential Count: Seg,[11],53%
same,Gamma GT,[11],46 U/L
same,Glucose,[11],72 mg/dL
same,Hct,[11],40.4%
same,Hgb,[11],13.4 g/dL
same,K+,[11],4.6 mEq/l
same,MCH,[11],12.3 pg
same,MCHC,[11],33.1 g/dL
same,MCV,[11],37.1 fL
same,Na+,[11],153 mEq/l
same,Phos,[11],7.5 mg/dL
same,Platlet Count,[11],319000 µL⁻¹
same,RBC,[11],1.09e+07 µL⁻¹
same,Total Bili,[11],0 mg/dL
same,Total Prot,[11],6.8 g/dL
same,WBC,[11],3470 µL⁻¹
same,ALT,[12],8 U/L
same,AST,[12],69 U/L
same,Albumin,[12],3.9 g/dL
same,Alk Phos,[12],33 U/L
same,BUN,[12],14 mg/dL
same,CPK,[12],94 U/L
same,Cholesterol,[12],3.5 mg/dL
same,Creatinine,[12],1.2 mg/dL
same,Differential Count: Atyp lym,[12],0%
same,Differential Count: Bands,[12],0%
same,Differential Count: Eosin,[12],1%
same,Differential Count: Lymph,[12],33%
same,Differential Count: Mono,[12],5%
same,Differential Count: Seg,[12],61%
same,Gamma GT,[12],74 U/L
same,Glucose,[12],89 mg/dL
same,Hct,[12],31.4%
same,Hgb,[12],10.2 g/dL
same,K+,[12],4.2 mEq/l
same,MCH,[12],12.3 pg
same,MCHC,[12],32.3 g/dL
same,MCV,[12],38.2 fL
same,Na+,[12],150 mEq/l
same,Phos,[12],48 mg/dL
same,Platlet Count,[12],173000 µL⁻¹
same,RBC,[12],8.23e+06 µL⁻¹
same,Total Bili,[12],0.2 mg/dL
same,Total Prot,[12],7.4 g/dL
same,WBC,[12],3170 µL⁻¹
same,ALT,[13],13 U/L
same,AST,[13],59 U/L
same,Albumin,[13],3.5 g/dL
same,Alk Phos,[13],55 U/L
same,BUN,[13],17 mg/dL
same,CPK,[13],93 U/L
same,Cholesterol,[13],62 mg/dL
same,Creatinine,[13],1.3 mg/dL
same,Differential Count: Atyp lym,[13],1%
same,Differential Count: Bands,[13],0%
same,Differential Count: Eosin,[13],5%
same,Differential Count: Lymph,[13],40%
same,Differential Count: Mono,[13],5%
same,Differential Count: Seg,[13],49%
same,Gamma GT,[13],42 U/L
same,Glucose,[13],61 mg/dL
same,Hct,[13],39.2%
same,Hgb,[13],12.2 g/dL
same,K+,[13],4.8 mEq/l
same,MCH,[13],12.0 pg
same,MCHC,[13],31.8 g/dL
same,MCV,[13],37.6 fL
same,Na+,[13],147 mEq/l
same,Phos,[13],5.9 mg/dL
same,Platlet Count,[13],214000 µL⁻¹
same,RBC,[13],1.04e+07 µL⁻¹
same,Total Bili,[13],0.1 mg/dL
same,Total Prot,[13],6.4 g/dL
same,WBC,[13],3590 µL⁻¹
